From PubChem BioAssay AID328 (DTP/NCI, 2004) come the findings set out here.

Several values for one entry are separate records, joined by “and”; a condition that tells them apart may be missing. Equal entries are not always repeated. Toxic doses and inconclusive results are not listed.

The experiment relates to BDF1 mice, P388 leukemia ip, median survival T/C. Put plainly: NCI In Vivo Anticancer Drug Screen. Data for tumor model P388 Leukemia (intraperitoneal) in B6D2F1 (BDF1) mice. Conditions: endpoint: median survival time, higher = longer survival. Summed up: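 Compound-treated tumour-bearing mice were compared with vehicle-treated controls. Survival was recorded, and the value is the treated-group measurement divided by the control-group measurement (T/C).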

Where [1] appears, read: dose: 100.0 mg/kg/injection, schedule: Q04DX003 (ip), vehicle: saline with Tween-80.
Where [2] appears, read: dose: 200.0 mg/kg/injection, schedule: Q04DX003 (ip), vehicle: saline with Tween-80.
Where [3] appears, read: dose: 400.0 mg/kg/injection, schedule: Q04DX003 (ip), vehicle: saline with Tween-80.
Where [4] appears, read: dose: 12.5 mg/kg/injection, schedule: Q01DX009 (ip), vehicle: saline with Tween-80.
[5] abbreviates: dose: 100.0 mg/kg/injection, schedule: Q01DX009 (ip), vehicle: Klucel (hydroxypropylcellulose) (HPC).
The mark [6] stands for this setting: dose: 400.0 mg/kg/injection, schedule: Q01DX009 (ip), vehicle: Klucel (hydroxypropylcellulose) (HPC).
The mark [7] stands for this setting: dose: 100.0 mg/kg/injection, schedule: Q01DX009 (ip), vehicle: saline with Tween-80.
The mark [8] stands for this setting: dose: 200.0 mg/kg/injection, schedule: Q01DX009 (ip), vehicle: saline with Tween-80.
[9] abbreviates: dose: 25.0 mg/kg/injection, schedule: Q01DX009 (ip), vehicle: Klucel (hydroxypropylcellulose) (HPC).
Where [10] appears, read: dose: 50.0 mg/kg/injection, schedule: Q01DX009 (ip), vehicle: Klucel (hydroxypropylcellulose) (HPC).
[11] abbreviates: dose: 200.0 mg/kg/injection, schedule: Q01DX009 (ip), vehicle: Klucel (hydroxypropylcellulose) (HPC).
Where [12] appears, read: dose: 25.0 mg/kg/injection, schedule: Q01DX009 (ip), vehicle: saline with Tween-80.
Setting [13] is: dose: 50.0 mg/kg/injection, schedule: Q01DX009 (ip), vehicle: saline with Tween-80.

Consider `COC(=O)c1cc(C)n(C)c(=O)c1CNS(=O)(=O)c1ccccc1`, for which the T/C by setting is: under setting [1], 98 % of control; under setting [2], 100 % of control; under setting [3], 98 % of control.
In the case of `O=C(C=C(C(F)(F)F)C(F)(F)F)c1ccco1`, the T/C (dose: 6.25 mg/kg/injection, schedule: Q01DX009 (ip), vehicle: saline with Tween-80) was 120 % of control and the T/C under setting [4] was 120 % of control.
For the molecule `Cc1ccc(/C=C2\CC(C)(C)c3ccccc3C2=O)cc1`, the T/C runs as follows: (dose: 65.0 mg/kg/injection, schedule: Q01DX009 (ip), vehicle: Klucel (hydroxypropylcellulose) (HPC)) 90 % of control; under setting [5], 87 % of control and 95 % of control; under setting [6], 100 % of control.
With `Cc1ccc(CCCCCCCCCCCC(=O)O)cc1`, the T/C was 96 % of control under setting [7]; 95 % of control under setting [1]; 92 % of control under setting [8]; 100 % of control under setting [2]; 107 % of control (dose: 400.0 mg/kg/injection, schedule: Q01DX009 (ip), vehicle: saline with Tween-80); 110 % of control under setting [3].
Regarding `COc1ccccc1OCC(C)=O`, the T/C reads like this: (dose: 178.0 mg/kg/injection, schedule: Q04DX003 (ip), vehicle: saline with Tween-80) 104 % of control; (dose: 266.0 mg/kg/injection, schedule: Q04DX003 (ip), vehicle: saline with Tween-80) 104 % of control; under setting [3], 114 % of control; (dose: 600.0 mg/kg/injection, schedule: Q04DX003 (ip), vehicle: saline with Tween-80) 104 % of control.
As to `CC1=CC(=O)C=CC1(C)C(Cl)Cl` (stereo not given), the T/C reads like this: under setting [1], 90 % of control; under setting [2], 105 % of control; under setting [3], 100 % of control.
With `CCC(=O)O[C@H]1CC[C@H]2[C@@H]3C[C@H](F)C4=CC(=O)CC[C@]4(C)[C@H]3CC[C@]12C`, the T/C is, setting by setting: under setting [1], 95 % of control; under setting [2], 95 % of control; (dose: 400.0 mg/kg/injection, schedule: Q01DX009 (ip), vehicle: saline sonified) 109 % of control; under setting [3], 109 % of control.
For `CC1(C)OCC(C2OC3OC(C)(C)OC3C2O)O1` (stereo not given), the T/C reads like this: (dose: 20.0 mg/kg/injection, schedule: Q01DX009 (ip), vehicle: saline) 107 % of control; (dose: 40.0 mg/kg/injection, schedule: Q01DX009 (ip), vehicle: saline) 109 % of control; (dose: 80.0 mg/kg/injection, schedule: Q01DX009 (ip), vehicle: saline) 108 % of control.
With `CCOc1cccc(OCC)c1C`, the T/C reads like this: (dose: 75.0 mg/kg/injection, schedule: Q01DX009 (ip), vehicle: Klucel (hydroxypropylcellulose) (HPC)) 100 % of control; (dose: 150.0 mg/kg/injection, schedule: Q01DX009 (ip), vehicle: Klucel (hydroxypropylcellulose) (HPC)) 100 % of control; (dose: 300.0 mg/kg/injection, schedule: Q01DX009 (ip), vehicle: Klucel (hydroxypropylcellulose) (HPC)) 100 % of control.
In the case of `Cc1ccc(OCC(O)CN2CCN(c3ccc(Cl)cc3)CC2)cc1` (stereo not given), the T/C (dose: 100.0 mg/kg/injection, schedule: Q04DX003 (ip), vehicle: saline sonified) was 100 % of control; the T/C (dose: 200.0 mg/kg/injection, schedule: Q04DX003 (ip), vehicle: saline sonified) was 100 % of control; the T/C (dose: 400.0 mg/kg/injection, schedule: Q04DX003 (ip), vehicle: saline sonified) is 100 % of control.
With `CC(C)(C)C1CC[N-]CC1.CC(C)(C)C1CC[N-]CC1.[Cl][Pt+2][Cl]`, the T/C reads like this: under setting [9], 104 % of control; under setting [10], 106 % of control; under setting [5], 117 % of control; under setting [11], 107 % of control.
Take `NC(N)=NC(N)=Nc1ccc(-c2ccc(N=C(N)N=C(N)N)cc2)cc1`: the T/C under setting [4] is 151 % of control and the T/C under setting [12] was 89 % of control.
`COc1ccc(/C(=N/N)C(C)(C)C)cc1`: under setting [13], the T/C was 88 % of control.
For `O=C(Nc1cccc2ccccc12)C(F)(F)F`, the T/C is, setting by setting: under setting [4], 109 % of control; under setting [12], 104 % of control; (dose: 25.0 mg/kg/injection, schedule: Q04DX003 (ip), vehicle: saline with Tween-80) 91 % of control; under setting [13], 100 % of control; (dose: 50.0 mg/kg/injection, schedule: Q04DX003 (ip), vehicle: saline with Tween-80) 99 % of control; under setting [7], 118 % of control. Moreover, under setting [1], the T/C is 90 % of control and 103 % of control.
In the case of `CCN(CC)P(=O)(N1CC1)N1CC1`, the T/C reads like this: (dose: 16.5 mg/kg/injection, schedule: Q04DX003 (ip), vehicle: saline) 272 % of control; (dose: 25.0 mg/kg/injection, schedule: Q04DX003 (ip), vehicle: saline) 90 % of control.
Consider `CCNSc1ccccc1`, for which the T/C by setting is: (dose: 12.5 mg/kg/injection, schedule: Q01DX009 (ip), vehicle: Klucel (hydroxypropylcellulose) (HPC)) 109 % of control; under setting [9], 110 % of control; under setting [10], 106 % of control.
`Cc1cc(C)cc(CCc2cc(C)cc(C)c2)c1`: the T/C is, setting by setting: (dose: 100.0 mg/kg/injection, schedule: Q04DX003 (ip), vehicle: Klucel (hydroxypropylcellulose) (HPC)) 100 % of control; under setting [11], 109 % of control; (dose: 200.0 mg/kg/injection, schedule: Q04DX003 (ip), vehicle: Klucel (hydroxypropylcellulose) (HPC)) 90 % of control; under setting [6], 100 % of control; (dose: 400.0 mg/kg/injection, schedule: Q04DX003 (ip), vehicle: Klucel (hydroxypropylcellulose) (HPC)) 95 % of control.
Consider `CCOC(CNC(=O)NC1CCCCC1)OCC`, for which the T/C by setting is: under setting [1], 90 % of control; under setting [2], 90 % of control; under setting [3], 90 % of control.
Take `C[C@@H]1C[C@@]2(C)C(=CC1=O)CC[C@@H]1C2=CC[C@@]2(C)[C@H]1CC[C@]2(C)O`: the T/C is 100 % of control and 110 % of control under setting [5]; 100 % of control (dose: 100.0 mg/kg/injection, schedule: Q04DX003 (ip), vehicle: alcohol); 90 % of control and 100 % of control under setting [11]; 105 % of control (dose: 200.0 mg/kg/injection, schedule: Q04DX003 (ip), vehicle: alcohol); 90 % of control and 113 % of control under setting [6]; 95 % of control (dose: 400.0 mg/kg/injection, schedule: Q04DX003 (ip), vehicle: alcohol).
As for `Cc1cc(Br)c2nsnc2c1[N+](=O)[O-]`, the T/C was 118 % of control (dose: 50.0 mg/kg/injection, schedule: Q01DX005 (ip), vehicle: saline with Tween-80) and 118 % of control (dose: 400.0 mg/kg/injection, schedule: Q01DX005 (ip), vehicle: saline with Tween-80).
Turning to `S=C(N/N=C1\CSCc2ccccc21)Nc1cc(Cl)ccc1Cl`, the T/C is, setting by setting: under setting [13], 90 % of control; under setting [8], 88 % of control.
With `CC(=O)OCC(OC(C)=O)C(OC(C)=O)C(OC(C)=O)C(C#N)OC(C)=O` (stereo not given), the T/C is, setting by setting: (dose: 75.0 mg/kg/injection, schedule: Q01DX009 (ip), vehicle: saline with Tween-80) 100 % of control; under setting [7], 105 % of control; under setting [1], 100 % of control; (dose: 150.0 mg/kg/injection, schedule: Q01DX009 (ip), vehicle: saline with Tween-80) 100 % of control; under setting [8], 120 % of control; under setting [2], 100 % of control. Moreover, the T/C under setting [3] was 100 % of control.
On to `CC1=C(O)/C(=C/C(C)CCC/C(C)=C/CC/C(C)=C/CCc2ccoc2)OC1=O` (stereo not given), for which the T/C was 100 % of control (dose: 0.31 mg/kg/injection, schedule: Q01DX009 (ip), vehicle: saline with Tween-80); 104 % of control (dose: 0.62 mg/kg/injection, schedule: Q01DX009 (ip), vehicle: saline with Tween-80); 98 % of control (dose: 2.5 mg/kg/injection, schedule: Q01DX009 (ip), vehicle: saline with Tween-80); 90 % of control (dose: 5.0 mg/kg/injection, schedule: Q01DX009 (ip), vehicle: saline with Tween-80).
Turning to `Cc1[nH]c(=S)[nH]c(=O)c1CN(CCO)CCO`, the T/C runs as follows: (dose: 50.0 mg/kg/injection, schedule: Q01DX001 (ip), vehicle: Klucel (hydroxypropylcellulose) (HPC)) 96 % of control; (dose: 100.0 mg/kg/injection, schedule: Q01DX001 (ip), vehicle: Klucel (hydroxypropylcellulose) (HPC)) 96 % of control; (dose: 200.0 mg/kg/injection, schedule: Q01DX001 (ip), vehicle: Klucel (hydroxypropylcellulose) (HPC)) 96 % of control.
